Drawing on patent US9630962B2, “4-amino-6-(2,6-dichlorophenyl)-2-(phenylamino)-pyrido[2,3-d]pyrimidin-7(8H)-one derivatives, synthesis and uses thereof” (INSTITUT QUÍMIC DE SARRIÁ, CETS FUNDACIÓ PRIVADA, priority 2013, dated 2017), this text covers remaining activity for one molecule.

Common to all, as to assay: Radiometric protein kinase assay (33PanQinase Activity Assay), residual activity
Common to all, as to assay type: biochemical
What all share (conditions): 10 μM (1×10^−05 M) test compound, singlicate

The target of one assay is T1, LYN (Homo sapiens, UniProt P07948).
T1 construct: purchased ProQinase; host or cells: Sf9 insect cells or E. coli (not specified per kinase)
The procedure:
(§1) The kinase inhibition profile of compounds of formula (I) was evaluated at Proqinase (http://www.proqinase.conn) by measuring residual activity values at a concentration of 10 μM of the test compound in singlicate in front of the following kinases: BTK, LYN, SYK aa1-635 using the following protocol:
(§2) The compounds were dissolved to 1×10^−03 M stock solutions in 100% DMSO. Subsequently, 100 μl of each stock solution were transferred into wells A3-F12 of a microtiter plate (“master plate”). Wells A1-F2 were filled with 100 μl 100% DMSO as controls. 5×10 μl of the master plate were aliquoted into 5 copy plates, which were stored at −20° Celsius until use. For the testing of each group of up to 8 kinases, one copy plate was used.
(§3) In the process, 90 μl H2O were added to each well of a copy plate. To minimize precipitation, the H2O was added to each well only a few minutes before the transfer of the compound solutions into the assay plates. The plate was shaken thoroughly, resulting in a “compound dilution plate” with a compound concentration of 1×10^−04 M/10% DMSO. This plate was used for the transfer of 5 μl compound solution into the assay plates. The final volume of the assay was 50 μl. All compounds were tested at 1×10^−05 M in singlicate. The final DMSO concentration in the reaction cocktails was 1% in all cases. The compound dilution plates were disposed at the end of each working day.
(§4) A radiometric protein kinase assay (^33PanQinase® Activity Assay) was used for measuring the kinase activity of the corresponding protein kinases. All kinase assays were performed in 96-well FlashPlates™ from Perkin Elmer (Boston, Mass., USA) in a 50 μl reaction volume. The reaction cocktail was pipetted in 4 steps in the following order: • 10 μl of non-radioactive ATP solution (in H2O) • 25 μl of assay buffer/[γ-33P]-ATP mixture • 5 μl of test sample in 10% DMSO • 10 μl of enzyme/substrate mixture
(§5) The protein kinase reaction cocktails were incubated at 30° C. for 60 minutes. The reaction was stopped with 50 μl of 2% (v/v) H3PO4, plates were aspirated and washed two times with 200 μl 0.9% (w/v) NaCl. All assays were performed with a BeckmanCoulter Biomek 2000/SL robotic system. Incorporation of ^33Pi (counting of “cpm”) was determined with a microplate scintillation counter (Microbeta, Wallac).
(§6) All protein kinases provided by ProQinase were expressed in Sf9 insect cells or in E. coli as recombinant GST-fusion proteins or His-tagged proteins. All kinases were produced from human cDNAs and purified by either GSH-affinity chromatography or immobilized metal. Affinity tags were removed from a number of kinases during purification. The purity of the protein kinases was examined by SDS-PAGE/Coomassie staining, the identity was checked by mass spectroscopy.
(§7) For each kinase, the median value of the cpm of six wells of column 1 of each assay plate was defined as “low control” (n=6). This value reflects unspecific binding of radioactivity to the plate in the absence of a protein kinase but in the presence of the substrate. Additionally, for each kinase the median value of the cpm of six wells of column 2 of each assay plate was taken as the “high control”, i.e. full activity in the absence of any inhibitor (n=6). The difference between high and low control of each enzyme was taken as 100% activity.
(§8) As part of the data evaluation the low control of each kinase was subtracted from the high control value as well as from their corresponding “compound values”. The residual activity (in %) for each compound well was calculated by using the following formula: Res. Activity (%)=100×[(signal of compound −low control)/(high control −low control)] Results
(§9) The singlicate residual activity values of the tested compounds at one concentration (1×10^−05 M) in singlicate in the required protein kinase assays are given.

The target in the next assay is T2, SYK aa1-635 (Homo sapiens, UniProt P43405).
T2 construct: BTK, LYN, SYK aa1-635; purchased ProQinase; host or cells: Sf9 insect cells or E. coli (not specified per kinase)
The procedure:
as §1, §2, §3, §4, §5, §6, §7, §8, §9

A further assay addresses T3, BTK (Homo sapiens, UniProt Q06187).
T3 construct: purchased ProQinase; host or cells: Sf9 insect cells or E. coli (not specified per kinase)
Here is the method: as §1, §2, §3, §4, §5, §6, §7, §8, §9

For orientation: remaining activity means the signal under treatment as a percentage of the control signal.

SMILES strings stand for the structures.

T3 sequence (Q06187 whole entry): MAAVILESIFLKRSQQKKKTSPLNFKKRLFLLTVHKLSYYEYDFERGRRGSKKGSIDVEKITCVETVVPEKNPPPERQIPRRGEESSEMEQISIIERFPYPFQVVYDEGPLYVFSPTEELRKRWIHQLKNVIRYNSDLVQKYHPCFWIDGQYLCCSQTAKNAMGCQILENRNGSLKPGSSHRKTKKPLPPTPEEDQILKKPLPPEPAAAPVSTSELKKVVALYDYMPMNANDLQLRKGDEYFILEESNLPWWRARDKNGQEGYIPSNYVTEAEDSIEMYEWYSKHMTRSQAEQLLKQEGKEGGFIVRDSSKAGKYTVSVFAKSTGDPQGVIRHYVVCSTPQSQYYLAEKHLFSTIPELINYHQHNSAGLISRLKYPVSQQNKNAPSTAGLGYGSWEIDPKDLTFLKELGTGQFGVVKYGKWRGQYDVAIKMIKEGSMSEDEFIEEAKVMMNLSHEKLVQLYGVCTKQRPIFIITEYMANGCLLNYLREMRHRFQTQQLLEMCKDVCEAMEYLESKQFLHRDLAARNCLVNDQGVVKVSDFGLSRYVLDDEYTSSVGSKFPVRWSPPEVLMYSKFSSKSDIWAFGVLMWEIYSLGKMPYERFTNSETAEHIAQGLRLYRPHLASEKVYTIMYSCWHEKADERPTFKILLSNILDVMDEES
T1 sequence (P07948 whole entry): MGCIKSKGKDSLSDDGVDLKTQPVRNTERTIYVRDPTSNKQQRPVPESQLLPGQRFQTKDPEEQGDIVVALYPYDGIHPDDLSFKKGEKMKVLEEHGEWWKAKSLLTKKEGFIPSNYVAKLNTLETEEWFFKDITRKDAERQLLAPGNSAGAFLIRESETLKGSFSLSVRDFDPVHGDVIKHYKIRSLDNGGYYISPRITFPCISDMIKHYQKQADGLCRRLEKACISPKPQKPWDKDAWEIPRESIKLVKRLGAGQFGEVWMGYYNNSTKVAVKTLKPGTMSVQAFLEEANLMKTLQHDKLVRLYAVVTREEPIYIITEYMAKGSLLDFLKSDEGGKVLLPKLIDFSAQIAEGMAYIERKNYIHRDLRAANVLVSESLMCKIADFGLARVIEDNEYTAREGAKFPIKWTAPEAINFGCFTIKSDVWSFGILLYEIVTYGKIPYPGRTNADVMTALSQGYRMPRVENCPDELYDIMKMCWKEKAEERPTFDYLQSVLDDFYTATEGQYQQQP

Consider `CN1CCN(c2ccc(Nc3nc(N)c4cc(-c5c(Cl)cccc5Cl)c(=O)n(C)c4n3)cc2)CC1` [Example 5, 4-amino-6-(2,6-dichlorophenyl)-8-methyl-2-(4-(4-methylpiperazin-1-yl)phenylamino)pyrido[2,3-d]pyrimidin-7(8H)-one], for which the remaining activity at 10 µM on LYN is -1%; at SYK aa1-635 it was 9%; at BTK it was 3%.
